Test results published in publication PMC8831244 (Nature methods, 2022).

Experiments:
OxLight1 [1] = target: T1, OxLight1 (Homo sapiens, UniProt O43614, DEL254-292/I293E/K294R/L160H/M161K/Q254E); assay type: cell-based; conditions: Almorexant 10 μM after OXB 5 μM
T1 sequence (O43614 with tags, fused parts or gaps L160H/M161K/DEL254-292/I293E/K294R): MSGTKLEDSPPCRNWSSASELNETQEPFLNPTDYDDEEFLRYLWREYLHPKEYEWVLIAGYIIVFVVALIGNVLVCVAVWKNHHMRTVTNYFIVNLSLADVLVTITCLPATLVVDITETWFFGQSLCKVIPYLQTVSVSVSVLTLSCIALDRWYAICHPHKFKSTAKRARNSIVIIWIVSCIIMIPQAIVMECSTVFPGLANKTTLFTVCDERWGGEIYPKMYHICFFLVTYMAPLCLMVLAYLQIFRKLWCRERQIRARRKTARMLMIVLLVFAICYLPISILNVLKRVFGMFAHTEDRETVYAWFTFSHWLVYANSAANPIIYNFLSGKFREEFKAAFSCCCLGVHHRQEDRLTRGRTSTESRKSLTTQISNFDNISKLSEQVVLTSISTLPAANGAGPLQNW

[2] = test system: OxLight1 in basal forebrain or LH; test: Photometry with polysomnographic recordings across sleep-wake states; assay type: in vivo, mouse; conditions: 50 mg/kg, per os, mice
OxLight1 [3] = test: Photometry during anesthesia; assay type: in vivo, mouse; conditions: isoflurane 2% 10 min or medetomidine 0.5 mg/kg i.p., mice
OxLight1 [4] = target: T1, OxLight1; assay type: cell-based; conditions: 10 μM, HEK293T
OxLight1 [5] = target: T1, OxLight1; assay type: cell-based; conditions: OxLight1, 10 μM orexin, HEK cells, mean ± SEM
OX2R [6] = test: Intracellular calcium signaling, OX2R-expressing HEK293T cells; assay type: cell-based, human; conditions: orexin-A and orexin-B
OxLight1 [7] = target: T1, OxLight1; assay type: cell-based; conditions: 10 μM, HEK293T, 37°C, mono-exponential fit, n = 8 dishes, mean ± SEM
OX2R [8] = test: Mini-G protein recruitment to OX2R, TIRF microscopy; assay type: cell-based, human; conditions: OXB 50 nM
OX2R [9] = test: beta-Arrestin-2 recruitment to OX2R, TIRF microscopy; assay type: cell-based, human; conditions: agonist stimulation 15 min

CNC(=O)[C@@H](c1ccccc1)N1CCc2cc(OC)c(OC)cc2[C@@H]1CCc1ccc(C(F)(F)F)cc1 [Almorexant]
reversal of fluorescence response (OxLight1 [1]): fully reversed

Cc1ccc(-n2nccn2)c(C(=O)N2CCN(c3nc4cc(Cl)ccc4o3)CC[C@H]2C)c1 [Suvorexant]
effect on OxLight1 response across sleep-wake states [2]: significantly reduced the response of OxLight1

FC(F)OC(Cl)C(F)(F)F (stereo not shown) [isoflurane]
effect on OxLight1 signal (OxLight1 [3]): significant decrease in OxLight1 signal

Cc1cccc(C(C)c2cnc[nH]2)c1C (stereo not shown) [medetomidine]
effect on OxLight1 signal (OxLight1 [3]): no change

Dynorphin
OxLight1 response to neuropeptide (OxLight1 [4]): lack of response

orexin-B: endogenous orexin neuropeptide
ΔF/F0, maximal response (OxLight1 [5]): 859 ± 27%
intracellular Ca2+ response (OX2R [6]): robust intracellular Ca^2+ responses
activation time constant τ (OxLight1 [7]): 618 ± 98 ms

B1: OX2R: wild-type human orexin type-2 receptor (protein, UniProt O43614 1-444, looked up)
Orexin receptor type 2: MSGTKLEDSPPCRNWSSASELNETQEPFLNPTDYDDEEFLRYLWREYLHPKEYEWVLIAGYIIVFVVALIGNVLVCVAVWKNHHMRTVTNYFIVNLSLADVLVTITCLPATLVVDITETWFFGQSLCKVIPYLQTVSVSVSVLTLSCIALDRWYAICHPLMFKSTAKRARNSIVIIWIVSCIIMIPQAIVMECSTVFPGLANKTTLFTVCDERWGGEIYPKMYHICFFLVTYMAPLCLMVLAYLQIFRKLWCRQIPGTSSVVQRKWKPLQPVSQPRGPGQPTKSRMSAVAAEIKQIRARRKTARMLMIVLLVFAICYLPISILNVLKRVFGMFAHTEDRETVYAWFTFSHWLVYANSAANPIIYNFLSGKFREEFKAAFSCCCLGVHHRQEDRLTRGRTSTESRKSLTTQISNFDNISKLSEQVVLTSISTLPAANGAGPLQNW
mini-G recruitment (OX2R [8]): selective and strong recruitment of mini-Gq
β-arrestin-2 engagement (OX2R [9]): robust β-arrestin-2 engagement
